target: T1, Secreted chorismate mutase (Mycobacterium tuberculosis (strain ATCC 25618 / H37Rv), UniProt P9WIB9); assay: CM Assay; conditions: pH 7.5; 37 °C
T1 sequence (P9WIB9 whole entry): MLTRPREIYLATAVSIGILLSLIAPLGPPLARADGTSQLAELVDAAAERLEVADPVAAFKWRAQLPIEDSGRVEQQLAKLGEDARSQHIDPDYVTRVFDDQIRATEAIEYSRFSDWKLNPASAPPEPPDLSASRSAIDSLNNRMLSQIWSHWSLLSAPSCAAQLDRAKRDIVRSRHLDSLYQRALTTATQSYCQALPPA
Method: Reaction volumes of 0.4 mL of chorismate (typically, 1 mM) in 50 mM Tris-HCl (pH 7.5), 0.5 mM EDTA, 0.1 mg/mL bovine serum albumin, and 10 mM β-mercaptoethanol were incubated at 37 °C for 5 min. The reaction was started with 5 pmol of MTB CM in a 10-μl volume (i.e. 185 ng of MTB CM equivalent toa 12.5nM final concentration of the dimer based on the molecular mass of 36 948 Da). The reaction was allowed to proceed at 37 °C and was terminated after 1 min to 5 min with 0.4 ml of 1N HCl. After a further incubation at 37 °C for 10 min to convert prephenate, which is formed in the enzymatic reaction, tophenylpyruvate, 0.8 ml of 2.5N NaOH was added. The absorbance of the phenylpyruvate chromophore was read at 320 nm. We set up a blank with no enzyme for every reaction to account for the non-enzymatic conversion of chorismate to prephenate and added the enzyme after NaOH addition. The A320 for the blank varied from 0.1 to 0.3, depending on the concentration of chorismate and duration of the reaction. Each reaction was carried out in triplicates.

Q: With `CC(C)c1cccc(O)c1` [Carvacrol derivative, 10] as the molecule, how does the IC50 read?
A: 21.4 µM

Q: How did the IC50 turn out when `C=C(C)C1CCC(C)CC1O` (stereo not drawn) [(±)Neo isopulegol] was run?
A: 13.6 µM

Q: `COc1cc(C)ccc1C(C)C` [Thymol derivative, 21] was tested. Which IC50 did it give?
A: 21.6 µM

Q: Which IC50 does the source give for `CC1CCC(C(C)C)C(O)C1` (stereo not drawn) [Menthol] here?
A: 26.4 µM

Q: `Cc1ccc(C(C)C)c(O)c1` [5-methyl-2-(propan-2-yl)phenol] was tested. Which IC50 did it give?
A: 28.4 µM

Q: How did the IC50 turn out when `Cc1ccc(C(C)C)cc1` [Carvacrol derivative, 8] was run?
A: 11.6 µM

Q: For `CC(=O)Oc1cc(C)ccc1C(C)C` [Thymol derivative, 17], which IC50 is on record?
A: 4.08 µM

Q: With `COc1cc(C=O)ccc1O` [4-hydroxy-3-methoxybenzaldehyde] as the molecule, how does the IC50 read?
A: 24.8 µM

Q: Which IC50 does the source give for `Cc1ccccc1O` [Carvacrol derivative, 9] here?
A: 23.1 µM

Q: Which IC50 does the source give for `Cc1cc(O)cc(C(C)C)c1` [Carvacrol derivative, 7] here?
A: 26.8 µM

Q: `Cc1ccc(C(C)C)cc1O` was tested. Which IC50 did it give?
A: 1.06 µM

Q: `C=CCc1ccc(O)c(OC)c1` [2-methoxy-4-(prop-2-en-1-yl)phenol4-allyl-2-methoxyphenol] was tested. Which IC50 did it give?
A: 28.6 µM

Q: `Cc1cc(Cl)c(C(C)C)cc1O` [Carvacrol derivative, 15] was tested. Which IC50 did it give?
A: 13.7 µM

Source: BindingDB's records for doi:10.3109/14756366.2013.823958 (Birla Institute of Technology, 2014)
